Consider two compounds from patent US12083182B2, “Controlled-release CNP agonists with increased NEP stability” (ASCENDIS PHARMA GROWTH DISORDERS A/S, priority 2016, dated 2024).

Series [1] can be described thus: Pharmacokinetic profile of CNP-38 after subcutaneous single-dose administration to cynomolgus monkeys. It counts as in vivo. To be noted: single s.c. 40 μg/kg.
Method: This study was performed in order to test the pharmacokinetics of CNP-38 after subcutaneous (s.c.) administration in cynomolgus monkeys. Three male monkeys (2-4 years old, 3-5 kg) received a single s.c. injection at a dose of 40 μg/kg of CNP-38. Blood samples were collected at 5, 10, 15, 30, 45 min and 1, 2, 4, 8 hours upon dose.
Method: Plasma levels of CNP were analysed using a commercially available competitive radioimmuno-assay (RK-012-03, Phoenix Pharmaceuticals, CA). The assay was applied essentially as described by the manufacturer. The assay is based on competitive binding between 125I-labelled CNP (supplied in the kit) and unlabeled CNP (from study sample or calibrants) to an anti-CNP antibody. […] By measuring the amount of 125I-labelled CNP bound as a function of the concentration of peptide, it is possible to construct a calibration curve from which the concentration of peptide in the sample can be determined.
A few changes to the supplied assay protocol were made. These changes included using in-house CNP calibrant and QC samples to secure consistency between assay runs. […] Due to matrix effects in monkey plasma, the minimal required dilution was set at 1:10, yielding an assay range of 150-1080 μg/mL CNP.
Series [2] can be described thus: Evaluation of cardiovascular effects in the conscious telemetered mouse (subcutaneous administration). Conditions: 800 μg CNP-38 (eq)/kg sc. The class given is in vivo, Crl:CD1(ICR) mice. As to the method: Male Crl:CD1(ICR) mice (age range 8-13 weeks and body weight range 27.3-35.6 g at start of dosing) were surgically implanted with a TA11PA-C10 telemetry transmitter (Data Sciences International (DSI)) in the carotid artery. The body of the transmitter was placed subcutaneously in the lateral flank of the mouse. The mice were dosed subcutaneously in a latin square crossover design with at least 72 hours between dosing occasions. […] At least four mice were included at each dose level. Blood pressure (systolic (SAP), diastolic (DAP) and mean (MAP) and heart rate (HR, derived from blood pressure), were recorded using a digital data capture system linked with a DSITM Ponemah data acquisition and analysis system. The capture system allowed recording of the cardiovascular parameters whilst the mice were in individual cages. On the day of each test session the animals were weighed and a predose recording was performed for at least 60 min prior to dosing. Each mouse was returned to the home cage and the cardiovascular parameters were recorded for approximately 48 hours postdose. Blood pressure and HR were reported at the following time points: −30, −20, −10, 5, 15 and 30 min postdose and 1, 2, 6, 12, 18, 24, 30, 36, 42 and 48 hours postdose. Each time point was presented as the average value of five minute's recording prior to the time point. The monitoring period was selected to cover exposure to the test items both prior to and after Tmax.

The conditions of series [3]: doses up to 15 μg/kg, healthy volunteers; cited from earlier work.
For series [4] the following is noted: in vivo; cited from earlier work.

`CC[C@H](C)[C@@H]1NC(=O)[C@H](CCCNC(=N)N)NC(=O)[C@H](CC(=O)O)NC(=O)[C@H](CC(C)C)NC(=O)[C@H](CCCCN)NC(=O)[C@H](CC(C)C)NC(=O)CNC(=O)[C@H](Cc2ccccc2)NC(=O)[C@@H](NC(=O)CNC(=O)[C@H](CCCCN)NC(=O)[C@H](CO)NC(=O)[C@H](CC(C)C)NC(=O)CNC(=O)[C@H](CCCCN)NC(=O)[C@H](CCCCN)NC(=O)[C@H](CC(N)=O)NC(=O)[C@H](C)NC(=O)CNC(=O)[C@H](CCCCN)NC(=O)[C@H](Cc2ccc(O)cc2)NC(=O)[C@H](CCCCN)NC(=O)[C@H](CCCNC(=N)N)NC(=O)[C@H](C)NC(=O)[C@H](CC(N)=O)NC(=O)[C@@H]2CCCN2C(=O)[C@H](Cc2c[nH]cn2)NC(=O)[C@H](CCC(=O)O)NC(=O)[C@H](CCC(N)=O)NC(=O)[C@@H](N)CC(C)C)CSSC[C@@H](C(=O)O)NC(=O)CNC(=O)[C@H](CC(C)C)NC(=O)CNC(=O)[C@H](CO)NC(=O)[C@H](CCSC)NC(=O)[C@H](CO)NC(=O)CNC1=O` [CNP-38]: the tolerability entry in series [1] is listed as “well tolerated”. In series [2] (up to 48 hours postdose), the “effect on heart rate (HR)” value was “not impacted”. Besides, in series [2] (5, 15 and 30 min post dose, CNP-38: 3 of 4 animals), the “effect on blood pressure (MAP)” value is recorded as “significant decrease in MAP”. Also, in series [2] (5 min post dose), the “MAP 5 min post dose (mean±SD)” value is recorded as 102.0 ± 7.5 mmHg. Also, the “MAP 15 min post dose (mean±SD)” value in series [2] (15 min post dose) came out at 89.5 ± 29.4 mmHg. The “MAP 30 min post dose (mean±SD)” value in series [2] (30 min post dose) worked out at 99.5 ± 25.2 mmHg. The “MAP predose (mean±SD)” value in series [2] (predose) is reported as 106.8 ± 13.4 mmHg.
As for BMN-111, the blood pressure effect entry in series [3] is “mild hypotension”. Further, the half-life – broadly, the time needed for the level to fall by half in the phase considered – in series [4] was 20 min.
